Each structure is given as a SMILES string. Calls of active or inactive are those of the source.

Assay [1] deals with T1, SUMO-activating enzyme (Homo sapiens, UniProt Q9UBT2). Briefly: SUMOylation inhibitor hit validation, confirmation, SUMOylation inhibitor project, biochemical, AlphaScreen (AID 2018). The format is functional. A general note: Alpha assays give light when donor and acceptor beads are brought close together.
For assay [2], the target named is T1, SUMO-activating enzyme. Briefly: inhibitors of in vitro SUMOylation cascade, primary screen, biochemical, HTRF, uHTS (AID 2006). The format is protein-complex assay. For orientation: Time-resolved FRET reads energy transfer from a long-lived donor to a nearby acceptor.
The target of another assay is SUMO E1/E2 (Homo sapiens, UniProt P63279+Q9UBE0+Q9UBT2). Briefly: SAR analysis of SUMOylation using HTRF in an in-Vitro dose response assay. [Related pubchem assays (depositor defined):AID2006, AID2011, AID2018, AID2069, AID2658]. The assay is classed as functional.
Assay [3] has as its target T2, Carboxy-terminal domain RNA polymerase II polypeptide A small phosphatase 1 (Homo sapiens, UniProt Q9GZU7).
T2 sequence (Q9GZU7 whole entry): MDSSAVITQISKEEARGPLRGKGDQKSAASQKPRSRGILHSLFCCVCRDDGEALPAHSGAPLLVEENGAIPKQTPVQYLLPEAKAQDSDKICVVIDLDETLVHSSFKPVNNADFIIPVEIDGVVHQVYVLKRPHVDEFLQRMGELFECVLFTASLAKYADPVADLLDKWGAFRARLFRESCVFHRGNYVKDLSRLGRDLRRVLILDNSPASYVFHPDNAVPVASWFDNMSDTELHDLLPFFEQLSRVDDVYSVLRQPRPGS
Briefly: inhibitors of CTDSP1, concentration-response testing, biochemical assay, absorbance-based, actives from ultra-high-throughput screening (AID 540297). The format is functional.

In assay [4] the target is Lysine-specific demethylase 4C (Homo sapiens, UniProt Q9H3R0). Briefly: GASC-1 (JMJD2C) histone demethylase inhibitors, dose response, biochemical, DELFIA europium, cherry-picked samples (AID 488835). The assay is classed as functional.
In the next assay the test system is Jurkat. Briefly: antigen receptor-induced NF-kB inhibitors, dose response, Jurkat, luciferase reporter, luminescence, B- and T-cell (AID 489004).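 Further: NF-kB luciferase reporter Jurkat cells stimulated with PMA plus ionomycin.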 The format is functional, cell-based. The note with it: Homo sapiens. (In general: Reporter assays use an easily measured gene product as a stand-in for the process of interest.)
Assay [5] is described as follows: cytotoxicity in HEK-293T NF-kB-Luc cells, dose response, cytotoxicity control for B/T-cell NF-kB inhibitor project, cell-based, uHTS hits (AID 489019).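 Further: IC50 reflects cytotoxicity as loss of cell viability.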 The format is functional.
Assay [6] is described as follows: cells. The assay is classed as functional, cell-based.
Assay [7] is described as follows: cells. The format is functional, cell-based. The source holds these as a separate data set.
In a further assay the target is T3, Hexokinase HKDC1 (Homo sapiens, UniProt Q2TB90).
T3 sequence (Q2TB90 whole entry): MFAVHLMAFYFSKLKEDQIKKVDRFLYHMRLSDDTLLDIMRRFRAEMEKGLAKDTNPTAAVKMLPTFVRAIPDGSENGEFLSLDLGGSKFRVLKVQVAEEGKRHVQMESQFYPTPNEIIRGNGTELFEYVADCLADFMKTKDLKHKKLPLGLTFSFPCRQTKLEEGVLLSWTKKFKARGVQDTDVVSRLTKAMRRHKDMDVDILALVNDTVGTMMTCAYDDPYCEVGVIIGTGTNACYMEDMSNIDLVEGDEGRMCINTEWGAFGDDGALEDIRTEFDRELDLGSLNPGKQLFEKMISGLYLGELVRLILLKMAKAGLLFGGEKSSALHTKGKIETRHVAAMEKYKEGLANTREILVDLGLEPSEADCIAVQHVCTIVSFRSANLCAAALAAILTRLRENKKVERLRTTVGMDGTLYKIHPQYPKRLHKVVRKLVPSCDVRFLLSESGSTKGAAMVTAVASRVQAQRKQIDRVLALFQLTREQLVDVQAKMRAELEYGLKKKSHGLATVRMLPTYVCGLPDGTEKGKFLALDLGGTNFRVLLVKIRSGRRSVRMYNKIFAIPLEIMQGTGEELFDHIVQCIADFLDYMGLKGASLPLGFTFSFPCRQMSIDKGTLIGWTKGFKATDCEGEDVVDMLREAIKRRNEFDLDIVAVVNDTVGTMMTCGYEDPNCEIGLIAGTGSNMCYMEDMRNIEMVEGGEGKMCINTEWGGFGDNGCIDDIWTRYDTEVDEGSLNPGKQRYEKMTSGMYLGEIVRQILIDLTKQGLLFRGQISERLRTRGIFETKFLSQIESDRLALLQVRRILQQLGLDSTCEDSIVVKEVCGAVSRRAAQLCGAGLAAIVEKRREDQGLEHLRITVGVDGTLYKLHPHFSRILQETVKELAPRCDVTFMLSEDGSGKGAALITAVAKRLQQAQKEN
Nature of the assay: HKDC1 hexokinase inhibitors, dose response, biochemical, W721R variant (AID 504729). The assay is classed as functional.

Assay [8] has as its target T4, Microphthalmia-associated transcription factor (Homo sapiens, UniProt O75030).
T4 sequence (O75030 whole entry): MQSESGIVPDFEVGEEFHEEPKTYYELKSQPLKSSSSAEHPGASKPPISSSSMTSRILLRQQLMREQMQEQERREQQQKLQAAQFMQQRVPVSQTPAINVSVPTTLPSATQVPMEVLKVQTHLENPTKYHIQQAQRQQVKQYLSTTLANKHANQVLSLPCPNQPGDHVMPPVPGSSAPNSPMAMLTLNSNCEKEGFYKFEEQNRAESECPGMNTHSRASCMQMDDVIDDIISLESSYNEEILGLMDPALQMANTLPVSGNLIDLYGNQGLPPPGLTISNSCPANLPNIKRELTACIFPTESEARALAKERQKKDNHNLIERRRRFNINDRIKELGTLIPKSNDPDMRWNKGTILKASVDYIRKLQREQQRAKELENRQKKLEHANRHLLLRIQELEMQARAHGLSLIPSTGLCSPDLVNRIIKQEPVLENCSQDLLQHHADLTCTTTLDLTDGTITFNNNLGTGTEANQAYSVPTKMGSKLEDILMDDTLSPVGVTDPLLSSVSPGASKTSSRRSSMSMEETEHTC
Briefly: TRPM1 promoter luciferase signal decrease, dose response, MITF inhibitor project, cell-based, SK-MEL-5, cherry-picked, set 3 (AID 493073).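 Further: SK-MEL-5 melanoma cells with luciferase driven by the MITF target TRPM1 promoter.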 The format is functional.

The target of assay [9] is T5, Replicative DNA helicase DnaB (Mycobacterium tuberculosis, UniProt P9WMR3).
T5 sequence (P9WMR3 whole entry): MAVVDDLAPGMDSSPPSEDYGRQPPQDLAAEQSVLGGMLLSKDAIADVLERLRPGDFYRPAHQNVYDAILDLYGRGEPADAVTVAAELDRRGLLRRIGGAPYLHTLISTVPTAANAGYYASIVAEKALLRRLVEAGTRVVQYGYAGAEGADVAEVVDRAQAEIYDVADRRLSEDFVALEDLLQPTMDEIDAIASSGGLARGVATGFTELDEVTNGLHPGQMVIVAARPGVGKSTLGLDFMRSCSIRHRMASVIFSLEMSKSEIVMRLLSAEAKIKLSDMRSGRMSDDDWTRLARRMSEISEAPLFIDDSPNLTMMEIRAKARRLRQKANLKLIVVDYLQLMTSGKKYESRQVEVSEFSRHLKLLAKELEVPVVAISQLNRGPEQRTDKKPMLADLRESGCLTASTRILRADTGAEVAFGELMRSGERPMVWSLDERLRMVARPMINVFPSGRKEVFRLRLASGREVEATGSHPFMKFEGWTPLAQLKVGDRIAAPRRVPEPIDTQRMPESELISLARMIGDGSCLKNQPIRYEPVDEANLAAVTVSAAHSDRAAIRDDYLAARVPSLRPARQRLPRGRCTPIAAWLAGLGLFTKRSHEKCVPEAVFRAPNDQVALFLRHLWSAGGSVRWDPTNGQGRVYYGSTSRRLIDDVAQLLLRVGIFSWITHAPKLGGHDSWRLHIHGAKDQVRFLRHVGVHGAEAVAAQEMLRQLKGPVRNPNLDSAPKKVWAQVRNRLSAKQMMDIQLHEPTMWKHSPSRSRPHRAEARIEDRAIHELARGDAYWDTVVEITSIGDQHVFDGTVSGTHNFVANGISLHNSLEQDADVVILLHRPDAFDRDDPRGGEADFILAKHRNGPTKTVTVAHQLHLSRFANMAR
Briefly: DnaB intein splicing inhibitors, dose response, biochemical, cell-free fluorescence (AID 449749). The format is functional.

A further assay deals with T6, Protein RecA (Mycobacterium tuberculosis, UniProt P9WHJ3).
T6 sequence (P9WHJ3 whole entry): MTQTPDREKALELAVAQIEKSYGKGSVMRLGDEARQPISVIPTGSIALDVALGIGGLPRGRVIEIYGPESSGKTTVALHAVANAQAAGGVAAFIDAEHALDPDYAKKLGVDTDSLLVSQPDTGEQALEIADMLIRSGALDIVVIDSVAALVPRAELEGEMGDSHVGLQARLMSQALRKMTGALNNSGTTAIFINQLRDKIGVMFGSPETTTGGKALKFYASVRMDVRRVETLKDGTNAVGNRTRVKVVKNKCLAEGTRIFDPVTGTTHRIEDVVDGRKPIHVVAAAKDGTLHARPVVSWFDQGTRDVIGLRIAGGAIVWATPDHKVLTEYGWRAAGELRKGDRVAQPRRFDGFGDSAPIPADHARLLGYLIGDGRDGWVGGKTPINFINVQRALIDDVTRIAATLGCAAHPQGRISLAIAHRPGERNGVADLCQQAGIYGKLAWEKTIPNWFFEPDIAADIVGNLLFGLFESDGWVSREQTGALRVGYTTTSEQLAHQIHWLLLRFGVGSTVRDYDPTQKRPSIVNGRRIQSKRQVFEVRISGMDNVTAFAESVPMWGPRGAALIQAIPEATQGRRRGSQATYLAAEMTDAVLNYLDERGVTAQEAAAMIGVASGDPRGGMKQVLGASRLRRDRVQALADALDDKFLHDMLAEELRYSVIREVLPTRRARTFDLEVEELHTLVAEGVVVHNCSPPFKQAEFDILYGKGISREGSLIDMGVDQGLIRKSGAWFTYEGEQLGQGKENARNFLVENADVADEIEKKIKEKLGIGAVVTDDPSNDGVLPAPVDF
Nature of the assay: Fluorescence Cell-Free Homogeneous Dose Retest to Identify Inhibitors of RecA-Intein Splicing Activity. [Related pubchem assays (depositor defined):AID2097, AID2223, AID489010, AID492950]. The format is functional.

For assay [10], the system named is HEK293. Nature of the assay: cells. The note with it: Homo sapiens.
For assay [11], the system named is HEK293. Briefly: cells. The note with it: Homo sapiens. The source holds these as a separate data set.
Assay [12] concerns the target SWI/SNF-related matrix-associated actin-dependent regulator of chromatin subfamily A member 2 (Homo sapiens, UniProt P51531). Nature of the assay: Luminescence-based cell-based high throughput dose response assay to identify activators of the function of SWI/SNF related, matrix associated, actin dependent regulator of chromatin, subfamily a, member 2 (SMARCA2, BRM). The format is functional.

Assay [13] is described as follows: Counterscreen for activators of the function of SWI/SNF related, matrix associated, actin dependent regulator of chromatin, subfamily a, member 2 (SMARCA2, BRM): Luminescence-based cell-based high throughput dose response assay to identify non-selective compounds using the VP16 reporter assay. The format is functional.

T1 sequence (Q9UBE0 whole entry): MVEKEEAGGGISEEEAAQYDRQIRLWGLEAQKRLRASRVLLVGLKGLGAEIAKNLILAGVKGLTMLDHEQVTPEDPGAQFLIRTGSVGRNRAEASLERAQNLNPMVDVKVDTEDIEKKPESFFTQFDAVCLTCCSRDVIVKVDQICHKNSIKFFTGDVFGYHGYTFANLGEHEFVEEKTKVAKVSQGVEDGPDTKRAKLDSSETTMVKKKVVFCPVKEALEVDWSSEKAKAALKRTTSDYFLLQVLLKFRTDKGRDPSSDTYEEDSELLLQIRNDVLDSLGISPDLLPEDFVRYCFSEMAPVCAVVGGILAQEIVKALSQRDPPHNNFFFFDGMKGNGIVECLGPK
T1 sequence (Q9UBT2 whole entry): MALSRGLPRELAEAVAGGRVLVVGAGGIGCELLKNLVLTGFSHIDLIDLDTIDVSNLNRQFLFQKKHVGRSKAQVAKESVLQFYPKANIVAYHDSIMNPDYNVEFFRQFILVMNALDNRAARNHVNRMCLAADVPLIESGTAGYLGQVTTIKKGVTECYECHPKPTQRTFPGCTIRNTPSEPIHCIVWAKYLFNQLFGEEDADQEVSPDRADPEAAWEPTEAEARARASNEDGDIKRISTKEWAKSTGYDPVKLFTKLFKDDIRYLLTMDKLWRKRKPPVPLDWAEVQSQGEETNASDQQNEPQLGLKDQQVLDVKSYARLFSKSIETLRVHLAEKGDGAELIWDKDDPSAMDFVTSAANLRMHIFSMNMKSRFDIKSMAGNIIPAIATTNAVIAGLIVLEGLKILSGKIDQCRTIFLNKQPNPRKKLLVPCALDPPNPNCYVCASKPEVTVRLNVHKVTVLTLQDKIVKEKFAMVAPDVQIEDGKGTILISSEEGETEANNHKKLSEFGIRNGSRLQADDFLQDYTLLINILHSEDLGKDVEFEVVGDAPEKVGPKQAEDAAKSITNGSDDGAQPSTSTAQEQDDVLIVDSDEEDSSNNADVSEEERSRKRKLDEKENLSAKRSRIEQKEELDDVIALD
Sequence of Lysine-specific demethylase 4C (Q9H3R0 whole entry): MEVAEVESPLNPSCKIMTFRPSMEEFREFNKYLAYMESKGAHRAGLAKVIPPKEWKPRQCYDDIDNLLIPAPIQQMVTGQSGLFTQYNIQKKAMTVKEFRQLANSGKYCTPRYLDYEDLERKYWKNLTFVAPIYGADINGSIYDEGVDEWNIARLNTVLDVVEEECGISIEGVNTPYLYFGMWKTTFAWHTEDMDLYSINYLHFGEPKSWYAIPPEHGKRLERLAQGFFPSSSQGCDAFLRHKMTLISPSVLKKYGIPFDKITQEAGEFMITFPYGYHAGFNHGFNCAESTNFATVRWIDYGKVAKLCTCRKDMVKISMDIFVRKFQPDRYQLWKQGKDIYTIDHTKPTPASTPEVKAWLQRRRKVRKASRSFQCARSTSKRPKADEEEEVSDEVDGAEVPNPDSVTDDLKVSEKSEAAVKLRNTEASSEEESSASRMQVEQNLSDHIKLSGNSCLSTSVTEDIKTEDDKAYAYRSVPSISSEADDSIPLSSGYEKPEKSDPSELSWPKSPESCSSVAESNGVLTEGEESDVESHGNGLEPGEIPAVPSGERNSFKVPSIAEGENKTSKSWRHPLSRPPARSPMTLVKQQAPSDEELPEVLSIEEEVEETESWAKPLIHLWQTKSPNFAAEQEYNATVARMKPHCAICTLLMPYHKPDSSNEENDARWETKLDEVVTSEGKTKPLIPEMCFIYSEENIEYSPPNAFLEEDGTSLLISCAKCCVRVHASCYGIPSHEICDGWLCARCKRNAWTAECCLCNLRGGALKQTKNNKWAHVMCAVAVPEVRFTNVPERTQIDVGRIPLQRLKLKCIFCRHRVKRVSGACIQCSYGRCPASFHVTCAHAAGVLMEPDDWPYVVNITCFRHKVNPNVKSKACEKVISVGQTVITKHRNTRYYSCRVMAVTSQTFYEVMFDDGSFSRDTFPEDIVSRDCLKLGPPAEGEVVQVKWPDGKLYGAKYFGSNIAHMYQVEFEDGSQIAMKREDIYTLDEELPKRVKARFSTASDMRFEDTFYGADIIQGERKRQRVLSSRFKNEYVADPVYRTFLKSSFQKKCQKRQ
Sequence of SWI/SNF-related matrix-associated actin-dependent regulator of chromatin subfamily A member 2 (P51531 whole entry): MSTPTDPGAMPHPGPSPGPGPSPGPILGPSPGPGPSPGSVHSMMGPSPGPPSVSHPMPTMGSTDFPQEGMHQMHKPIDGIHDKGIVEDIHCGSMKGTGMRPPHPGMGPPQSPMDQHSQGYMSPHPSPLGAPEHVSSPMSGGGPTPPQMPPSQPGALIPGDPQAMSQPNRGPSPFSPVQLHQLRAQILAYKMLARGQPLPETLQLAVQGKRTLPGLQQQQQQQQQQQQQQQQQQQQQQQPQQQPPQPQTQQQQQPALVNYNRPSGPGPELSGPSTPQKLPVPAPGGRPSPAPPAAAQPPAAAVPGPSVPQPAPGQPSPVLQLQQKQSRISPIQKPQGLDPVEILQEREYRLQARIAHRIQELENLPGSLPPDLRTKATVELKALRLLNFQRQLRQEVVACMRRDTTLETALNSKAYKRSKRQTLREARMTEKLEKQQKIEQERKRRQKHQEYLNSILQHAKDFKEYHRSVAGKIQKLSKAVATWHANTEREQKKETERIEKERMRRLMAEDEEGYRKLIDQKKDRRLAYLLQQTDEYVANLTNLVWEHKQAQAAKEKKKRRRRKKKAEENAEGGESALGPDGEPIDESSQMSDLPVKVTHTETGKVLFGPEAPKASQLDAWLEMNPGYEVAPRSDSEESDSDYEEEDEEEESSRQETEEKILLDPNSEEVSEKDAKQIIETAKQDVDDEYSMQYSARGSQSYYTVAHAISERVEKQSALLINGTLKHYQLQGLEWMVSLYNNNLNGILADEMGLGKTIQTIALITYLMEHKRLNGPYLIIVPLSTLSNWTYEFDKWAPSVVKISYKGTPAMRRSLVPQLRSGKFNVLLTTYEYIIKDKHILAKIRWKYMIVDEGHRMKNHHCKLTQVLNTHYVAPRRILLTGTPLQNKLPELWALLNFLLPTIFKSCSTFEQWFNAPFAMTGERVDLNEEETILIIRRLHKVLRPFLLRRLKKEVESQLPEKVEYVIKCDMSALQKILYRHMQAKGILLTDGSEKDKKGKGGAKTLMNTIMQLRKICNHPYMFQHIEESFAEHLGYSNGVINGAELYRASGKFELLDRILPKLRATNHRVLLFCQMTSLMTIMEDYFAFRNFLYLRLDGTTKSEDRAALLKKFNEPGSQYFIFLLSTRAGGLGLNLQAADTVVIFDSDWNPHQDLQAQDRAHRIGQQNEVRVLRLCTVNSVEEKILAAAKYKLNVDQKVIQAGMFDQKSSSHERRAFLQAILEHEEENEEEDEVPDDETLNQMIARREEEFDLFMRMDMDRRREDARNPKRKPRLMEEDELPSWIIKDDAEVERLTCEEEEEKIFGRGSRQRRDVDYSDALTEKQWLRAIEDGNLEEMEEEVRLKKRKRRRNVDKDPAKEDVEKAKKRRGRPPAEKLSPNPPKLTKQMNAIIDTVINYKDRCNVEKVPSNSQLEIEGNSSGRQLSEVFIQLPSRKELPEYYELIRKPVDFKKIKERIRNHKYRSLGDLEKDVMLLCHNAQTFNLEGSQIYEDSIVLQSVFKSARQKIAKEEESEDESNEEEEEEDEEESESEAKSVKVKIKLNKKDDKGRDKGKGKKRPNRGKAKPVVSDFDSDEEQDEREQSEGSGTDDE
Sequence of SUMO E1/E2 (Q9UBE0 whole entry, the tested form may be a part): as the sequence (Q9UBE0 whole entry) above
Sequence of SUMO E1/E2 (Q9UBT2 whole entry, the tested form may be a part): as the sequence (Q9UBT2 whole entry) above
Sequence of SUMO E1/E2 (P63279 whole entry, the tested form may be a part): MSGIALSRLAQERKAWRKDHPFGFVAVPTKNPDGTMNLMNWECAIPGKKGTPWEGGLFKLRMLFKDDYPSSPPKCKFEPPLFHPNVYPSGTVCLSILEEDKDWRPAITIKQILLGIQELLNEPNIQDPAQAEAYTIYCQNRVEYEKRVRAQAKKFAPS

Regarding `O=C(N=Nc1c(O)[nH]c2ccc([N+](=O)[O-])cc12)c1ccccc1Cl`, the IC50 (commonly the point on the concentration scale where inhibition reaches its midpoint) at SUMO-activating enzyme [1] is 7.02 µM (active); at SUMO-activating enzyme [2], 20.4 µM (active); at SUMO E1/E2, 94.4 µM (active); in assay [3], 6.44 µM (active).
`O=C1NC(=O)C(C(CC(=O)c2ccccc2)c2ccccc2)C(=O)N1` (centres undefined): the AC50 (as a rule, the concentration giving half of the maximal activity seen) in assay [4] was 7.62 µM (active).
`CC(C)Cc1cc(C(C)(C)C)ccc1OC(=S)N(C)C`: the IC50 (in the assay with Jurkat; in assay [5]) was > 80 µM (inactive) in each case.
In the case of `COc1ccc(-n2c(C)cc(C(=O)CCl)c2C)cc1`, the EC50 (as a rule, the concentration that produces a half-maximal response) in “cells [6]” is > 350 µM (not active); in the assay “cells [7]”, > 350 µM (not active); at Protein RecA, 19 µM (active); in the assay with HEK293 [10] it was > 59.7 µM (inactive); with HEK293 [11], > 59.7 µM (inactive). The IC50 on Hexokinase HKDC1 is 27 µM (inactive). The values for the AC50 in [8] and in assay [9] were 6.44 µM (active) and 22.9 µM (active), respectively.
Take `O=C1C2C3C=CC(C4CC34)C2C(=O)N1/N=C/c1ccc([N+](=O)[O-])o1` (centres undefined): the EC50 in assay [12] was > 91.1 µM (inactive); in [13] it was > 91.1 µM (inactive); in the assay on HEK293 [10] it was > 59.6 µM (inactive); in the assay on HEK293 [11] it was > 59.6 µM (inactive).

Values taken from ChEMBL document CHEMBL1201862, “PubChem BioAssay data set” (2004).
